biological target: T1, Wee-1 kinase (Homo sapiens, UniProt P30291); experiment: Measurement of Wee-1 kinase activity (ADP-Glo luminescent kit); type: biochemical
T1 construct: purchased Invitrogen PV3817
Procedure: Method 1: Measurement of Wee-1 Kinase Activity
In the measurement of Wee-1 activity, a commercial peptide Poly(Lys Tyr (4:1)) hydrobromide was purchased from Sigma Aldrich and used as the substrate. Activated Wee-1 kinase was purchased from Invitrogen (PV3817) and an ADP-Glo luminescent kit was purchased from Promega.
All reactions took place in […] volumes in reaction buffer containing 40 mM Tris-HCl and 20 mM magnesium chloride, supplemented with 0.1 mg/mL bovine serum albumin and 2 mM DTT. Compounds were serially diluted in buffer and 5 μL of each concentration pipetted into a white 384 well plate (Sigma Aldrich M6186). A 5 μL aliquot of the Wee-1 enzyme was added to each well and the plate centrifuged for 1 min to ensure mixing of the enzyme and inhibitor.
The plate was incubated at room temperature for 30 minutes before the addition of 2.0 μg/mL of substrate and 30 μM ATP in a 5 μL aliquot. The plate was centrifuged for one minute and incubated for 1 h at RT.
15 µL of ADP-Glo stop reagent was added to each well to quench the reaction and deplete unconverted ATP. The plate was incubated for a further 40 min in the dark at RT.
30 μL of ADP-Glo kinase detection reagent was added to each well, converting ADP to ATP, catalysing the generation of luciferin by luciferase. The plate was shaken for 1 min, and incubated in the dark for an additional hour.
Luminescence from each well was detected using the Biotek Synergy4 HD plate reader and the percentage inhibition of kinase activity calculated for each inhibitor tested. Positive (kinase only) and negative (no kinase) controls were added to each plate to ensure specific interaction of kinase and inhibitor. The IC50 concentration for each inhibitor was calculated by plotting the percentage kinase inhibition against concentration of inhibitor and the curve generated by non-linear regression fitting.

T1 sequence (P30291 whole entry): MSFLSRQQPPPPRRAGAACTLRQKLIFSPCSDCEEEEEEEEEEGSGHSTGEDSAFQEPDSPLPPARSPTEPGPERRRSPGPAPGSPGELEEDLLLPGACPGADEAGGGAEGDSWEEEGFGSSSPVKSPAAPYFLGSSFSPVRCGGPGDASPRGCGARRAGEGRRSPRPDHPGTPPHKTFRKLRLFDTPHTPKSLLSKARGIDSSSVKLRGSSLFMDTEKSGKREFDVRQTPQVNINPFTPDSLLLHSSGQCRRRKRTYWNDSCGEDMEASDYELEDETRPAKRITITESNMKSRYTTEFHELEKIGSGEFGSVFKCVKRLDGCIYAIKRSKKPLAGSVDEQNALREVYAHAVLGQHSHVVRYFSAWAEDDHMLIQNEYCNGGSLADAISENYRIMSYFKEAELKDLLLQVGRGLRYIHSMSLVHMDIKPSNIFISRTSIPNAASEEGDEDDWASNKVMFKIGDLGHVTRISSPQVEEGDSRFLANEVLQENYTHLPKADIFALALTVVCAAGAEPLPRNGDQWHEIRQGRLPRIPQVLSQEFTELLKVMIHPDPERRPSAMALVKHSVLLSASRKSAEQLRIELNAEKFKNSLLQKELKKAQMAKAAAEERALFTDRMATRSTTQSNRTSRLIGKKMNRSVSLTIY

| IC50 [nM] | SMILES |
| --- | --- |
| ≤ 10 | COc1cc(Nc2ncc3c(n2)N(C)CN(c2c(Cl)cccc2Cl)C3=O)ccc1C1CCN(C)CC1 [Example 183, 3-(2,6-dichlorophenyl)-7-((3-methoxy-4-(1-methylpiperidin-4-yl)phenyl)amino)-1-methyl-2,3-dihydropyrimido[4,5-d]pyrimidin-4(1H)-one] |
| 10 to 100 | CN1CN(c2ccccc2Cl)C(=O)c2cnc(Nc3ccc(N4CCNCC4)cc3)nc21 [Example 24, 3-(2-Chlorophenyl)-1-methyl-7-((4-(piperazin-1-yl)phenyl)amino)-2,3-dihydropyrimido[4,5-d]pyrimidin-4(1H)-one] |
| ≥ 100 | CN1CN(c2c(Cl)cccc2Cl)C(=O)c2cnc(Nc3ccc(N4CCN(C)C(C(F)(F)F)C4)cc3)nc21 (stereo not drawn) [Example 68, 3-(2,6-dichlorophenyl)-1-methyl-7-((4-(4-methyl-3-(trifluoromethyl)piperazin-1-yl)phenyl)amino)-2,3-dihydropyrimido[4,5-d]pyrimidin-4(1H)-one] |
| 10 to 100 | C[C@@H]1CN(c2ccc(Nc3ncc4c(n3)N(C)CN(c3ccccc3Cl)C4=O)cc2F)CCN1 [Example 99, (R)-3-(2-chlorophenyl)-7-((3-fluoro-4-(3-methylpiperazin-1-yl)phenyl)amino)-1-methyl-2,3-dihydropyrimido[4,5-d]pyrimidin-4(1H)-one] |
| ≥ 100 | COc1ccc(CN2CN(c3c(Cl)cccc3Cl)C(=O)c3cnc(Nc4ccc(N5CCNCC5)cc4)nc32)cc1 [Example 8, 3-(2,6-Dichlorophenyl)-1-(4-methoxybenzyl)-7-((4-(piperazin-1-yl)phenyl)amino)-2,3-dihydropyrimido[4,5-d]pyrimidin-4(1H)-one] |
| 10 to 100 | C[C@@H]1CN[C@@H](C)CN1c1ccc(Nc2ncc3c(n2)N(C)CN(c2c(F)cccc2Cl)C3=O)cc1 [Example 93, 3-(2-chloro-6-fluorophenyl)-7-((4-((2R,5S)-2,5-dimethylpiperazin-1-yl)phenyl)amino)-1-methyl-2,3-dihydropyrimido[4,5-d]pyrimidin-4(1H)-one] |
| 10 to 100 | CN1CN(c2c(F)cccc2Cl)C(=O)c2cnc(Nc3ccc(N4C[C@@H]5C[C@H]4CN5)cc3)nc21 [Example 54, 7-((4-((1S,4S)-2,5-diazabicyclo[2.2.1]heptan-2-yl)phenyl)amino)-3-(2-chloro-6-fluorophenyl)-1-methyl-2,3-dihydropyrimido[4,5-d]pyrimidin-4(1H)-one] |
| 10 to 100 | COc1cc(Nc2ncc3c(n2)N(C)CN(c2ccccc2Cl)C3=O)ccc1N1C[C@@H]2C[C@H]1CN2 [Example 107, 7-((4-((1S,4S)-2,5-diazabicyclo[2.2.1]heptan-2-yl)-3-methoxyphenyl)amino)-3-(2-chlorophenyl)-1-methyl-2,3-dihydropyrimido[4,5-d]pyrimidin-4(1H)-one] |
| 10 to 100 | C[C@@H]1CN(C)[C@@H](C)CN1c1ccc(Nc2ncc3c(n2)N(C)CN(c2c(Cl)cccc2Cl)C3=O)cc1 [Example 45, 3-(2,6-dichlorophenyl)-1-methyl-7-((4-((2R,5S)-2,4,5-trimethylpiperazin-1-yl)phenyl)amino)-2,3-dihydropyrimido[4,5-d]pyrimidin-4(1H)-one] |
| 10 to 100 | CN1CN(c2c(Cl)cccc2Cl)C(=O)c2cnc(Nc3ccc4c(c3)C3CCC(C4)N3)nc21 (stereo not drawn) [Example 70, 3-(2,6-dichlorophenyl)-1-methyl-7-((6,7,8,9-tetrahydro-5H-5,8-epiminobenzo[7]annulen-3-yl)amino)-2,3-dihydropyrimido[4,5-d]pyrimidin-4(1H)-one] |
| ≥ 100 | CN1CN(c2ccccc2Cl)C(=O)c2cnc(Nc3ccc(N4CC5C[C@H]4CN5)cc3)nc21 (stereo in doubt) [Example 104, 7-((4-((1S,4R)-2,5-diazabicyclo[2.2.1]heptan-2-yl)phenyl)amino)-3-(2-chlorophenyl)-1-methyl-2,3-dihydropyrimido[4,5-d]pyrimidin-4(1H)-one] |
| 10 to 100 | C[C@@H]1CN[C@@H](C)CN1c1ccc(Nc2ncc3c(n2)N(C)CN(c2ccccc2Cl)C3=O)cc1 [Example 98, 3-(2-chlorophenyl)-7-((4-((2R,5S)-2,5-dimethylpiperazin-1-yl)phenyl)amino)-1-methyl-2,3-dihydropyrimido[4,5-d]pyrimidin-4(1H)-one] |
| 10 to 100 | C[C@@H]1CN(c2ccc(Nc3ncc4c(n3)N(C)CN(c3ccccc3Cl)C4=O)cc2)CCN1 [Example 94, (R)-3-(2-chlorophenyl)-1-methyl-7-((4-(3-methylpiperazin-1-yl)phenyl)amino)-2,3-dihydropyrimido[4,5-d]pyrimidin-4(1H)-one] |
| 10 to 100 | COCc1cc(Nc2ncc3c(n2)N(C)CN(c2c(Cl)cccc2Cl)C3=O)ccc1N1CCN(C)CC1 [Example 69] |
| 10 to 100 | CN1CN(c2ccccc2Cl)C(=O)c2cnc(Nc3ccc(N4CCNC5(CC5)C4)cc3)nc21 [Example 105, 7-((4-(4,7-diazaspiro[2.5]octan-7-yl)phenyl)amino)-3-(2-chlorophenyl)-1-methyl-2,3-dihydropyrimido[4,5-d]pyrimidin-4(1H)-one] |
| 10 to 100 | CN1CN(c2c(Cl)cccc2Cl)C(=O)c2cnc(Nc3ccc(N4CCNC(C(F)(F)F)C4)cc3)nc21 (stereo not drawn) [Example 62, 3-(2,6-dichlorophenyl)-1-methyl-7-((4-(3-(trifluoromethyl)piperazin-1-yl)phenyl)amino)-2,3-dihydropyrimido[4,5-d]pyrimidin-4(1H)-one] |
| 10 to 100 | CN1CN(c2c(Cl)cccc2Cl)C(=O)c2cnc(Nc3ccc(N4CC5COCC(C4)N5C)cc3)nc21 [Example 71, 3-(2,6-dichlorophenyl)-1-methyl-7-((4-(9-methyl-3-oxa-7,9-diazabicyclo[3.3.1]nonan-7-yl)phenyl)amino)-2,3-dihydropyrimido[4,5-d]pyrimidin-4(1H)-one] |
| 10 to 100 | C[C@@H]1CN(c2ccc(Nc3ncc4c(n3)N(C)CN(c3c(Cl)cccc3Cl)C4=O)cc2)C[C@H](C)N1C [Example 52, 3-(2,6-dichlorophenyl)-1-methyl-7-((4-((3R,5S)-3,4,5-trimethylpiperazin-1-yl)phenyl)amino)-2,3-dihydropyrimido[4,5-d]pyrimidin-4(1H)-one] |
| 10 to 100 | C[C@@H]1CN(c2ccc(Nc3ncc4c(n3)N(C3CC3)CN(c3c(Cl)cccc3Cl)C4=O)cc2)CCN1 [Example 85, (R)-1-cyclopropyl-3-(2,6-dichlorophenyl)-7-((4-(3-methylpiperazin-1-yl)phenyl)amino)-2,3-dihydropyrimido[4,5-d]pyrimidin-4(1H)-one] |
| 10 to 100 | CN1CN(c2c(F)cccc2Cl)C(=O)c2cnc(Nc3ccc(N4CCOCC4)c(CO)c3)nc21 [Example 57] |
| 10 to 100 | C[C@@H]1CN(c2ccc(Nc3ncc4c(n3)N(C)CN(c3c(Cl)cccc3Cl)C4=O)cc2F)CCN1C [Example 47, (R)-3-(2,6-dichlorophenyl)-7-((4-(3,4-dimethylpiperazin-1-yl)-3-fluorophenyl)amino)-1-methyl-2,3-dihydropyrimido[4,5-d]pyrimidin-4(1H)-one] |
| 10 to 100 | COC[C@H]1CN(c2ccc(Nc3ncc4c(n3)N(C)CN(c3c(Cl)cccc3Cl)C4=O)cc2)CCN1C [Example 65, (R)-3-(2,6-dichlorophenyl)-7-((4-(3-(methoxymethyl)-4-methylpiperazin-1-yl)phenyl)amino)-1-methyl-2,3-dihydropyrimido[4,5-d]pyrimidin-4(1H)-one] |
| ≤ 10 | COc1cc(Nc2ncc3c(n2)N(C)CN(c2c(Cl)cccc2Cl)C3=O)ccc1C1CCNCC1 [Example 182, 3-(2,6-dichlorophenyl)-7-((3-methoxy-4-(piperidin-4-yl)phenyl)amino)-1-methyl-2,3-dihydropyrimido[4,5-d]pyrimidin-4(1H)-one] |
| ≥ 100 | CN1CN(c2c(F)cccc2Cl)C(=O)c2cnc(Nc3cccc(CO)c3)nc21 [Example 56, 3-(2-chloro-6-fluorophenyl)-7-((3-(hydroxymethyl)phenyl)amino)-1-methyl-2,3-dihydropyrimido[4,5-d]pyrimidin-4(1H)-one] |
| 10 to 100 | COc1cc(Nc2ncc3c(n2)N(C)CN(c2c(Cl)cccc2Cl)C3=O)ccc1N1C[C@@H]2C[C@H]1CN2 [Example 82, 7-((4-((1S,4S)-2,5-diazabicyclo[2.2.1]heptan-2-yl)-3-methoxyphenyl)amino)-3-(2,6-dichlorophenyl)-1-methyl-2,3-dihydropyrimido[4,5-d]pyrimidin-4(1H)-one] |
| 10 to 100 | C[C@@H]1CN[C@@H](C)CN1c1ccc(Nc2ncc3c(n2)N(C)CN(c2ccccc2Cl)C3=O)cc1F [Example 110, 3-(2-chlorophenyl)-7-((4-((2R,5S)-2,5-dimethylpiperazin-1-yl)-3-fluorophenyl)amino)-1-methyl-2,3-dihydropyrimido[4,5-d]pyrimidin-4(1H)-one] |
| 10 to 100 | C[C@@H]1CN[C@@H](C)CN1c1ccc(Nc2ncc3c(n2)N(C)CN(c2c(Cl)cccc2Cl)C3=O)cc1F [Example 81, 3-(2,6-dichlorophenyl)-7-((4-((2R,5S)-2,5-dimethylpiperazin-1-yl)-3-fluorophenyl)amino)-1-methyl-2,3-dihydropyrimido[4,5-d]pyrimidin-4(1H)-one] |
